Data as given in patent US6699834B1, “Method for treating cancer” (University of Maryland Biotechnology Institute, priority 1997, dated 2004).
Bridge positions count the residues as written; N and C are the ends. Ends that are not written are not given here.

Legend:
[1] = tested on: HIV RNA and protein expression; experiment: HIV RNA and protein expression in HIV-1 transgenic mice; format: in vivo
Text: The HIV-1 transgenic mice used for this study contain 7.4 kb of foreign DNA, including 5.1 kb of the HIV-1 proviral genome deleted in the gag and pol genes and 2.3 kb of vector (Dickie et al., 1991, Virology 185:109-119). […] In addition, these mice develop severe hyperkeratotic skin lesions with marked expression of gp 120 and nef genes (Kopp et al., 1993, AIDS Res. Hum. Retroviruses 9:267-275; Vasli et al., 1994, AIDS Res. Hum. Retroviruses 10:1241-1250).
Heterozygous transgenic mothers were treated with the hCG preparation subcutaneously twice weekly. Pups received hCG via the mother's milk.
Gene expression was assayed in total RNA extracted from the skin of Tg26 mice with RNAzol. One microgram of RNA was reverse transcribed into cDNA using random hexamer primers and […] reverse transcriptase (Life Technologies, MD) in a final volume of 30 μl. One tenth of the cDNA reactions were used for PCR amplification of various HIV gene sequences (env, tat, rev, nef and vif). In addition, glyceraldehyde 3-phosphate dehydrogenase (GAPHD) mRNA was amplified for each sample for normalization. Following 25 cycles of amplification, 10% of the PCR product was resolved by electrophoresis through 2% agarose gels and processed for Southern hybridization using FITC-labeled oligonucleotide probes complimentary to internal sequences of the amplicons. Detection was performed by chemiluminescence (Amersham) and relative mRNA levels determined by densitometry after normalization with GAPDH mRNA levels.
Finally, certain fractions were tested for their ability to increase survival, promote weight gain and reduce HIV-1 gene expression in HIV-1 transgenic mice as described herein.

[2] = tested on: KS Y-1 and KS-SLK cells; experiment: Kaposi's Sarcoma clonogenic assay in cultured cells; format: cell-based, human; conditions: for inhibition of KS cell growth in clonogenic assays (in words): KS Y-1 and KS SLK
Outline: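 KS Y-1 or KS-SLK cells, 5×10^4 seeded in 0.8% methylcellulose, grown 10 days with or without hCG, β-hCG or β-hCG peptide preparations; well-formed colonies counted in triplicate wells.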

[3] = tested on: hematopoietic progenitor cells; experiment: Hematopoietic progenitor clonogenic assays (CFU-GEMM, BFU-e, CFU-GM); format: cell-based, human
Outline: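 Normal bone marrow and cord blood progenitors (2×10^5 cells/ml) grown in methylcellulose with hCG preparations at 200 IU/ml or α/β-subunits and peptides at 100 μg/ml. Colonies (aggregates >50 cells) counted after 10 days of culture.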

[4] = tested on: prostate cancer cells; experiment: Trypan blue cell death assay, prostate cancer cells; format: cell-based
Description: (§1) The hCG preparations, fractions of the early pregnancy urine and hCG APL™ SUPERDEX™ 200 fractionations (described herein), and certain β-hCG peptides were tested on prostate, lung, breast, and kidney cancer cells in vitro, and on prostate tumors in nude mice. […] The preparations fractions and peptides were also assayed using a clonogenic assay in which cells were seeded in methylcellulose in the presence or absence of test substance and then colonies were counted after a certain period of time. Cells were also examined for apoptosis by confocal microscopy.
The effects of hCG preparations, hCG fractions and β-hCG peptides were tested in prostate cancer cells both in vitro and in vivo. Cells were incubated in either 10% fetal bovine serum (FBS) or 3% fetal bovine serum plus hCG preparations, hCG fractions and β-hCG peptides.

[5] = tested on: breast cancer cells; experiment: Clonogenic assay, breast cancer cells; format: cell-based; conditions: 100 ug/ml
Description: as §1
The hCG preparation, hCG fractions and β-hCG peptides were also tested for the inhibition of breast cancer cell colony formation in the clonogenic assay.

[6] = tested on: prostate cancer cells; experiment: Apoptosis by confocal microscopy, prostate cancer cells; format: cell-based; conditions: 48 hours
Description: (§2) The preparations fractions and peptides were also assayed using a clonogenic assay in which cells were seeded in methylcellulose in the presence or absence of test substance and then colonies were counted after a certain period of time. Cells were also examined for apoptosis by confocal microscopy. FIGS. 18A-H show confocal micrographs of prostate cancer cells treated with an hCG or hCG related preparation and then stained with FITC-labelled actin monoclonal antibody to visualize the cytoskeleton and propidium iodine to visualize the cell nucleus. Condensation of the nucleus and damage to the cytoskeleton are indications of apoptosis.

[7] = tested on: prostate cancer cells; experiment: Prostate cancers induced in nude mice; format: in vivo; conditions: peptide 200 μg per day, hCG APL 100 IU per day, systemic
[8] = tested on: lung cancer cells; experiment: Apoptosis by confocal microscopy, lung cancer cells; format: cell-based; conditions: 48 hours
Description: as §2, with “FIGS. 23A-F” for “FIGS. 18A-H”, “confocal micrograms” for “confocal micrographs”, “of lung” for “of prostate”, “with the” for “with an”, “with FITC labelled” for “with FITC-labelled”, “the cells” for “the cell”

[9] = listed as cyclized β-hCG peptide of amino acids 44-57

4. Circ 44-57: β-hCG 44-57 with cysteine substituted at position 44, circularized via disulfide bond (SEQ ID NO:26) (CLQGVLPALPQVVC; disulfide 1-14 (inferred))
inhibition of HIV RNA and protein expression ([1]; inhibition of HIV RNA and protein expression in HIV-1 transgenic mice): +++ (“+++” represents greater than 70% effect) | HIV-1 gene / protein expression in transgenic mice (in words) ([1]; pups dosed via mother's milk): considerable inhibition | inhibition of KS cell growth in clonogenic assays (in words) ([2]; listed as cyclic 44-57): strongest anti-tumor effects | inhibition of KS cell growth in clonogenic assays (in words) [2, 9]: inhibited KS cell growth | KS in vitro ([2]; inhibition of Kaposi's Sarcoma cell growth in vitro in cultured cells): +++ (“+++” represents greater than 70% effect) | promotion of hematopoiesis (in words) ([3]; listed as circularized 44-57): directly promoted | promotion of hematopoiesis (in words) [3, 9]: pro-hematopoietic activity | Pro-hematopoiesis in vitro Enhancement ([3]; relative increase of hematopoietic colony cell number, hCG preparations 200 IU/ml, subunits and peptides 100 μg/ml): +++ (“+++” represents greater than 70% effect) | percentage of cell death (trypan blue) ([4]; 3% FBS, 200 μg/ml): 39% | percentage of cell death (trypan blue) ([4]; 3% FBS, 300 μg/ml): 50% | percentage of cell death (trypan blue) ([4]; 10% FBS, 200 μg/ml): 29% | percentage of cell death (trypan blue) ([4]; 10% FBS, 300 μg/ml): 38% | % inhibition (colony formation) [5]: 45% | apoptosis [6]: increased apoptosis | apoptosis of prostate cancer cells in vivo [7]: caused apoptosis of the prostate cancer cells in vivo | apoptosis [8]: increased apoptosis
